From US6291482A, “N-hydroxyurea derivative and pharmaceutical composition containing the same” (Nikken Chemicals Co., LTD, priority 1997, dated 2001)
Where a name gives a salt, the structure may show the parent alone.

Columns and labels:
[1] = tested on: antigen-induced bronchoconstriction; assay: Antigen-induced bronchoconstriction model of guinea pig (Konzett-Rossler method); assay type: in vivo; conditions: 2 hours after administration, ovalbumin-sensitized guinea pigs
Experimental: (Pharmacological Activity on Antigen-Induced Bronchoconstriction Model of Guinea Pig)
Guinea pigs sensitized by ovalbumin were used and orally administered with the test compound suspended in 5% gum arabic. The activity for inhibiting antigen-induced bronchoconstriction after 2 hours after administration was measured by the Konzett-Rossler method.
Each of the sensitized guinea pigs (i.e., 5-7 pigs in one group) was anesthesized by 35 mg/kg pentobarbital, a cannula was inserted into the respiratory tract and connected to an artificial respirator, a cannula was inserted into the jugular vein, and treatment was performed by 5 mg/kg suxamethonium and 5 mg/kg mepyramine. Next, the guinea pig was inhaled a nebulized ovalbumin to cause bronchoconstriction and the activity in inhibiting bronchoconstriction was found from the ratio of the amount of overflow volume to the detector to the amount of air blown volume from the artificial respirator.
As the test compound, the present Compound (I) were used, and as the control, the above compound (A) and the thromboxane synthase inhibitor ozagrel hydrochloride (OKY-046) were used.

lipoxygenase = target: T1, lipoxygenase (Rattus norvegicus, UniProt P12527); assay: Test of lipoxygenase inhibitory activity in vitro (leukotriene B4 production in polymorphonuclear leukocytes); assay type: cell-based; conditions: calcium ionophore A-23187, read-out: LTBI IC50 (inhibition of the production of leukotriene B4)
T1 construct: the peritoneal cavities were lavaged and the polymorphonuclear leukocytes were recovered; endogenous in cells; host or cells: peritoneal polymorphonuclear leukocytes of male SD rats (casein-elicited)
T1 sequence (P12527 1-673): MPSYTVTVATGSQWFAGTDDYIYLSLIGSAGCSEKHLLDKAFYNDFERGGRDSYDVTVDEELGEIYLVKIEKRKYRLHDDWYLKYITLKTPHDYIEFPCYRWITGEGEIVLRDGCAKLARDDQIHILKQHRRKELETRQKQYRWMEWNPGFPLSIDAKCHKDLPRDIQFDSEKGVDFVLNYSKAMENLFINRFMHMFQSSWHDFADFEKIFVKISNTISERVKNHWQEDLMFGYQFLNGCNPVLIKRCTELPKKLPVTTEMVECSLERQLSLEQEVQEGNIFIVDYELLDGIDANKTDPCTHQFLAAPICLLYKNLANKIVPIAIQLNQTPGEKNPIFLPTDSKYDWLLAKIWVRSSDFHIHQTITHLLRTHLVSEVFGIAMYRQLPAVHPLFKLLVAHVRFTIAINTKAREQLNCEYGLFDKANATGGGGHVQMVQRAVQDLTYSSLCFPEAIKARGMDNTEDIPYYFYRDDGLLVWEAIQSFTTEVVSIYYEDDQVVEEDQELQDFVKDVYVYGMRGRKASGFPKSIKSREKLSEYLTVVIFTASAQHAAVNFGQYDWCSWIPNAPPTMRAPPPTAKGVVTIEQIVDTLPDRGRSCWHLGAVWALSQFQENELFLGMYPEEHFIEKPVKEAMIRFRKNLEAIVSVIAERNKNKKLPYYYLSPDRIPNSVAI
Experimental: (Test of Lipoxygenase Inhibitory Activity in In Vitro)
Using rat polymorphonuclear leukocytes, a test was conducted using as an indicator the amount of production of leukotriene B4. SD male rats (Japan Clea) were intraperitoneally administered with 12% sodium casein. After 16 hours, the peritoneal cavities were lavaged and the polymorphonuclear leukocytes were recovered. The polymorphonuclear leukocytes thus obtained were suspended in a phosphate buffer (137 mM NaCl, 3 mM KCl, 8 mM Na2 HPO4, 2 mM KH2 PO4) (2.5×10^5 cells/0.4 ml), then the test compound (final concentration 10^-5 M) was added and incubation performed for 10 minutes at 37° C. then a calcium solution (10 mM CaCl2, 0.86% NaCl) 0.1 ml was added and incubation performed for 5 minutes, then 1.25 μl of calcium ionophore (20 μM, A-23187) was added and the reaction started. Five minutes after the addition, 250 μl of methanol was added to stop the reaction. After the reaction was stopped, the result was centrifuged for 20 minutes (4° C., 3000 rpm), then the amount of leukotriene B4 in the supernatant was measured by the EIA method (Cayman Co. kit).
(§1) As the test compound, the compound (I) was used for the test.

thromboxane synthase [2] = target: T2, thromboxane synthase (Homo sapiens, UniProt P24557); assay: Test of thromboxane synthase inhibitory activity in vitro (thromboxane B2 production, platelet microsomes); assay type: biochemical; conditions: prostaglandin H2 substrate, read-out: TxSI IC50 (inhibition of production of thromboxane B2)
T2 construct: Human platelet microsomes were used; from tissue; host or cells: human platelet microsomes
T2 sequence (P24557 1-533): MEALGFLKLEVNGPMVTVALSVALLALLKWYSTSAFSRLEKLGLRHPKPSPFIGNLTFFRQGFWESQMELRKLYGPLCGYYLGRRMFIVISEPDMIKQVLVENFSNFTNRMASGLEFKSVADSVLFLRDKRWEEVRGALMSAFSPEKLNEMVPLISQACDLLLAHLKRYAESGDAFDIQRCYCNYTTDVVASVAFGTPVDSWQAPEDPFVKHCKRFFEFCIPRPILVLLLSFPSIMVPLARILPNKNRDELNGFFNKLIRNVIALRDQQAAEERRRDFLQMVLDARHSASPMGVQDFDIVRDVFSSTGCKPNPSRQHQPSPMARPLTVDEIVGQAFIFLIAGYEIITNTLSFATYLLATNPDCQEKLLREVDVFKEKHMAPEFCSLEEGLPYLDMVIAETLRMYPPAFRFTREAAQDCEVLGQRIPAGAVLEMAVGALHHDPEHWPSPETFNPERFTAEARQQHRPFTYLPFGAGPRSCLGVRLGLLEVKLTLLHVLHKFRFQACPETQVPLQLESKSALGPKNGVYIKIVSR
Experimental: (Test of Thromboxane Synthase Inhibitory Activity in In Vitro)
Human platelet microsomes were used and a test performed using as an indicator the amount of production of the thromboxane A2 stable metabolite thromboxane B2. A buffer solution (20 mM tris-HCl buffer solution, 1 mM EDTA, pH 7.5) containing human platelet microsomes (50 μg protein/ml) and the test compound (final concentration of 10^-6 M) was stirred, then incubated at 0° C. for 30 minutes, followed by adding prostaglandin H2 (100 ng/2 μl ). This was made acidic to stop the reaction, then neutralized with 1M Tris-base, then centrifuged at 3000 rpm for 20 minutes. The amount of the thromboxane B2 in the supernatant was measured by the EIA method (Cayman Co. kit).
as §1

5-lipoxygenase = target: T3, 5-lipoxygenase (Rattus norvegicus, UniProt P12527); assay: Lipoxygenase inhibitory activity ex vivo (leukotriene B4 in blood after oral administration); conditions: 1 h, SD male rats, one hour before blood sampling, read-out: LTBI ED50 (50% inhibitory amount)
T3 construct: from tissue; host or cells: whole blood of male SD rats
T3 sequence (P12527 1-673): T1 sequence (P12527 1-673)
Source text: (§2) (Measurement of Lipoxygenase Inhibitory Activity and Thromboxane Synthase Inhibitory Activity in Ex Vivo)
(§3) For the test animals, SD male rats were used. These were made to fast from the day before the test. The test drug was suspended in 0.5% sodium carboxymethylcellulose and orally administered one hour before the blood was taken. The blood was taken from the abdominal aorta and divided for the measurement of the thromboxane synthase inhibitory activity and the 5-lipoxygenase inhibitory activity.
The 5-lipoxygenase activity was shown using as an indicator the amount of production of leukotriene B4. 50 μM calcium ionophor (A-23187) was added to the divided blood to start the reaction (37° C., 30 minutes), and 1 mM Indomethacin, 1 mM Phenidone, and 0.1 mM EGTA were added to stop the reaction. The plasma was centrifuged (3000 rpm, 20 minutes, 4° C.) and the leukotriene B4 in the plasma was measured by the EIA method.

thromboxane synthase [3] = target: T4, thromboxane synthase (Rattus norvegicus, UniProt P49430); assay: Thromboxane synthase inhibitory activity ex vivo (thromboxane B2 in serum after oral administration); conditions: 1 h, SD male rats, one hour before blood sampling, read-out: TxSI ED50 (50% inhibitory amount)
T4 construct: The divided blood was allowed to naturally coagulate; from tissue; host or cells: whole blood of male SD rats, allowed to clot
T4 sequence (P49430 1-533): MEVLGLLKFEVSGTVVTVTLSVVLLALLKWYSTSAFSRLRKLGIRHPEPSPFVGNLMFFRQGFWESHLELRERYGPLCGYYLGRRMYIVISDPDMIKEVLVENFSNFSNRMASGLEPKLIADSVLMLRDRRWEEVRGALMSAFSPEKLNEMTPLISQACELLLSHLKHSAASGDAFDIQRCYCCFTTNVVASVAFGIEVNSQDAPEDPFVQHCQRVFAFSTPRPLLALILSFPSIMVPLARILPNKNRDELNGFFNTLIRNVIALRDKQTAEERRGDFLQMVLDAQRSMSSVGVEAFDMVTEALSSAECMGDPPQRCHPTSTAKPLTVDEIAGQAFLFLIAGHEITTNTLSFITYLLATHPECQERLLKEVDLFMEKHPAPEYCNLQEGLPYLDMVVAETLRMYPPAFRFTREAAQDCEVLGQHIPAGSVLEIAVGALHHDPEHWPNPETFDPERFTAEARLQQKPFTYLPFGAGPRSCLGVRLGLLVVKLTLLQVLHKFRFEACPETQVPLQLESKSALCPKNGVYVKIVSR
Source text: as §2, §3
On the other hand, the thromboxane synthase activity was shown using as an indicator the amount of production of the thromboxane A2 stable metabolite thromboxane B2. The divided blood was allowed to naturally coagulate (25° C., 90 minutes) and then the serum was centrifuged (3000 rpm, 20 minutes, 4° C.) and the amount of thromboxane B2 in the serum was measured by the EIA method.

Structure (SMILES): O=C(O)/C=C/c1ccc(Cn2ccnc2)cc1 [OKY-046, ozagrel hydrochloride]
- Suppression rate of respiratory constriction ([1]; 100 mg/kg oral): 42%

Structure (SMILES): NC(=O)N(O)CC1=Cc2cc(Cc3cccnc3)ccc2OC1 [Compound (I), N-hydroxy-N-[6-(3-pyridylmethyl)-2H-1-benzopyran-3-ylmethyl]urea]
- IC50 (lipoxygenase): 200 nM
- IC50 (thromboxane synthase [2]): 300 nM
- ED50 (5-lipoxygenase): 1.7 mg/kg
- ED50 (thromboxane synthase [3]): 1.5 mg/kg
- Suppression rate of respiratory constriction ([1]; 50 mg/kg oral): 75%

Structure (SMILES): NC(=O)N(O)CC1=Cc2cc(OCc3cccnc3)ccc2OC1 [(B)]
- ED50 (5-lipoxygenase): 9 mg/kg
- ED50 (thromboxane synthase [3]): > 10 mg/kg

Structure (SMILES): NC(=O)N(O)CC1=Cc2cc(Oc3ccccc3)ccc2OC1 [Compound (A)]
- ED50 (5-lipoxygenase): 1.7 mg/kg
- ED50 (thromboxane synthase [3]): > 30 mg/kg
- Suppression rate of respiratory constriction ([1]; 100 mg/kg oral): 26%
